{"source": "patent US12447163B2", "about": "“Liposomal formulations of Bcl inhibitors” (Jazz Pharmaceuticals Therapeutics, Inc., priority 2021, dated 2025)", "system": "platelet count", "assay": "Platelet count (thrombocytopenia / platelet protection) after administration of liposomal formulations or free drug", "type": "in vivo, Female B6D2F1/J mice", "conditions": "liposomal formulations at various doses or free drug, FIG. 7F", "experimental": "Female B6D2F1/J mice were purchased from Jackson Laboratory and acclimated 7 days prior to study start. Mice were caged in autoclaved Allentown ventilated caging at a capacity of 3 animals/cage during the course of the experiment. Cages were changed bi-weekly. Environmental enrichment that was supplied for cages were Nestlets from Ancare, transparent tinted polycarbonate Mouse Igloos from Bio-Serv on Envigo 7097¼″ corn cob bedding. All enrichment was added to the cage prior to the cages being autoclaved. Mice were fed Envigo Teklad Global Rodent Diet 2018. The rodent food was kept in the hoppers of the wire lids and was changed bi-weekly. Reverse osmosis water was supplied through Avidity Science automatic watering valves at a flow rate of 25-50 ml/min. Environmental control of the lights and monitoring of temperature, humidity and airflow was done by WatchDog. Light cycles in the animal holding rooms was set for 12 hours on and 12 hours off. Temperature, humidity and airflow were maintained and controlled by BCCRC facilities.\nMice were injected with the required volume to administer the prescribed dose (10 mg/kg) to the animals based on individual mouse weights using a 28 G needle. The injection volume was 200 μL/20 g mouse. The mice were briefly (less than 30 sec.) restrained during i.v. injections. […]", "data": [{"smiles": "CN(C)CC[C@H](CSc1ccccc1)Nc1ccc(S(=O)(=O)NC(=O)c2ccc(N3CCN(Cc4ccccc4-c4ccc(Cl)cc4)CC3)cc2)cc1[N+](=O)[O-]", "note": "[Compound 7]", "values": [{"measurement": "tolerability (platelet count)", "value": "well tolerated at the tested doses"}]}]}
